Converted amounts (≈) assume the structure as drawn. Where a SMILES comes first, the peptide text is derived from it. Bridges are numbered along the chain shown (N, C = ends). Roman numbers before positions name the chains, in order. [ ]: non-standard residue; d: D form. Thr(ol) = C[C@@H](O)[C@H](N)CO; Pen = CC(C)(S)[C@H](N)C(=O)O; Tle = CC(C)(C)[C@H](N)C(=O)O; NMeV = CN[C@H](C(=O)O)C(C)C; Hiv = CC(C)[C@H](O)C(=O)O; dDab = NCC[C@@H](N)C(=O)O; hSer = N[C@@H](CCO)C(=O)O; Dab = NCC[C@H](N)C(=O)O; Dap = NC[C@H](N)C(=O)O
Legend:
Assay type in all cases: cell-based
[1] = system: Acinetobacter baumannii 872842; details: 872842
Procedure, shortened: (§1)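 Broth microdilution per CLSI; MH-II (cation-adjusted) + 0.002% P-80 final; ~10^6 CFU/mL inoculum; 2-fold peptide series; 35° C, 18-20 h; MIC = no visible growth, μg/mL.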

[2] = system: Acinetobacter baumannii DSM 30008; details: DSM 30008
Procedure, shortened: as §1

[3] = system: Enterobacter cloacae 848840; details: 848840
Procedure, shortened: as §1

[4] = system: Escherichia coli 926415; details: 926415
Procedure, shortened: as §1

[5] = system: Escherichia coli ATCC 25922; details: ATCC 25922
Procedure, shortened: as §1

[6] = system: Klebsiella pneumoniae 968733; details: 968733
Procedure, shortened: as §1

[7] = system: Klebsiella pneumoniae SSI #3010; details: SSI #3010
Procedure, shortened: as §1

[8] = system: Pseudomonas aeruginosa ATCC 27853; details: ATCC 27853
Procedure, shortened: as §1

[9] = system: human red blood cells (hRBC); assay: Hemolysis; details: red cells of human, 1 h, 200
Procedure, shortened: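 Washed fresh human RBC (20% v/v) incubated with peptide at 200 μg/mL for 1 h at 37° C with shaking. Supernatant OD540 measured after dilution, blank corrected; percent hemolysis = OD540 peptide / OD540 of 2% Triton X-100 lysis × 100, PBS with 10% water as 0%.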

Structure (SMILES)	MIC [1]	MIC [2]	MIC [3]	MIC [4]	MIC [5]	MIC [6]	MIC [7]	MIC [8]	Hemolysis at 200 μg/mL [9]
CC(=O)N[C@H](C(=O)N[C@@H](CN)C(=O)N[C@@H](Cc1ccc(O)cc1)C(=O)N[C@H]1CSSC[C@@H](C(=O)N[C@H](C(=O)N[C@@H](C)C(=O)N[C@@H](CO)C(N)=O)C(C)(C)C)NC(=O)[C@H](Cc2c[nH]c3ccccc23)NC(=O)[C@H]([C@@H](C)O)NC(=O)[C@@H](CCN)NC(=O)[C@H](CCC(=O)N[C@@H](CCN)C(=O)N[C@H](C(=O)N[C@@H](CCN)C(=O)N[C@H]2CCNC(=O)[C@H]([C@@H](C)O)NC(=O)[C@H](CCN)NC(=O)[C@H](CCN)NC(=O)[C@H](CC(C)C)NC(=O)[C@@H](CC(C)C)NC(=O)[C@H](CCN)NC2=O)[C@@H](C)O)NC1=O)C(C)C [Ex. 179] (I: Ac-V[Dap]YCE[dDab]TWC[Tle]AS-NH2 / II: [Dab]T[Dab][Dab][Dab][dL]L[Dab][Dab]T; disulfide I:4-I:9; amide I:5-II:N; lactam II:4-II:C)	0.25 µg/mL (≈ 0.104 µM)	0.0625 µg/mL (≈ 0.0259 µM)	0.5 µg/mL (≈ 0.207 µM)	0.5 µg/mL (≈ 0.207 µM)	0.125 µg/mL (≈ 0.0518 µM)	4 µg/mL (≈ 1.66 µM)	0.25 µg/mL (≈ 0.104 µM)	0.25 µg/mL (≈ 0.104 µM)	<1%
CN[C@H](C(=O)N[C@@H](CN)C(=O)N[C@@H](Cc1ccc(O)cc1)C(=O)N[C@@H]1C(=O)N[C@@H](CCC(=O)N[C@@H](CCN)C(=O)N[C@H](C(=O)N[C@@H](CCN)C(=O)N[C@H]2CCNC(=O)[C@H]([C@@H](C)O)NC(=O)[C@H](CCN)NC(=O)[C@H](CCN)NC(=O)[C@H](CC(C)C)NC(=O)[C@@H](CC(C)C)NC(=O)[C@H](CCN)NC2=O)[C@@H](C)O)C(=O)N[C@H](CCN)C(=O)N[C@@H]([C@@H](C)O)C(=O)N[C@@H](Cc2c[nH]c3ccccc23)C(=O)N[C@H](C(=O)N[C@H](C(=O)N[C@@H](C)C(=O)N[C@@H](CO)C(N)=O)C(C)(C)C)CSSC1(C)C)C(C)C [Ex. 181] (I: H-[NMeV][Dap]Y[Pen]E[dDab]TWC[Tle]AS-NH2 / II: [Dab]T[Dab][Dab][Dab][dL]L[Dab][Dab]T; disulfide I:4-I:9; amide I:5-II:N; lactam II:4-II:C)	2 µg/mL (≈ 0.83 µM)	0.25 µg/mL (≈ 0.104 µM)	1 µg/mL (≈ 0.415 µM)	2 µg/mL (≈ 0.83 µM)	0.25 µg/mL (≈ 0.104 µM)	8 µg/mL (≈ 3.32 µM)	0.5 µg/mL (≈ 0.207 µM)	0.5 µg/mL (≈ 0.207 µM)	<1%
CC(C)C[C@@H]1NC(=O)[C@@H](CC(C)C)NC(=O)[C@H](CCN)NC(=O)[C@@H](NC(=O)[C@H](CCN)NC(=O)[C@@H](NC(=O)[C@H](CCN)NC(=O)CC[C@@H]2NC(=O)[C@@H](NC(=O)[C@H](Cc3ccc(O)cc3)NC(=O)[C@@H](NC(=O)[C@@H](N)C(C)C)[C@@H](C)O)CSSC[C@@H](C(=O)N[C@H](C(=O)N[C@@H](C)C(=O)N[C@@H](CO)C(N)=O)C(C)(C)C)NC(=O)[C@H](Cc3c[nH]c4ccccc34)NC(=O)[C@H]([C@@H](C)O)NC(=O)[C@@H](CCN)NC2=O)[C@@H](C)O)CCNC(=O)[C@H]([C@@H](C)O)NC(=O)[C@H](CCN)NC(=O)[C@H](CCN)NC1=O [Ex. 182] (I: H-VTYCE[dDab]TWC[Tle]AS-NH2 / II: [Dab]T[Dab][Dab][Dab][dL]L[Dab][Dab]T; disulfide I:4-I:9; amide I:5-II:N; lactam II:4-II:C)	0.125 µg/mL (≈ 0.0524 µM)	0.0625 µg/mL (≈ 0.0262 µM)	0.125 µg/mL (≈ 0.0524 µM)	0.5 µg/mL (≈ 0.21 µM)	0.03125 µg/mL (≈ 0.0131 µM)	1 µg/mL (≈ 0.419 µM)	0.125 µg/mL (≈ 0.0524 µM)	0.125 µg/mL (≈ 0.0524 µM)	<1%
CN[C@H](C(=O)N[C@H](C(=O)N[C@@H](Cc1ccc(O)cc1)C(=O)N[C@H]1CSSC[C@@H](C(=O)N[C@H](C(=O)N[C@@H](C)C(=O)N[C@@H](CO)C(N)=O)C(C)C)NC(=O)[C@H](Cc2c[nH]c3ccccc23)NC(=O)[C@H](CO)NC(=O)[C@@H](CCN)NC(=O)[C@H](CCC(=O)N[C@@H](CCN)C(=O)N[C@H](C(=O)N[C@@H](CCN)C(=O)N[C@H]2CCNC(=O)[C@H]([C@@H](C)O)NC(=O)[C@H](CCN)NC(=O)[C@H](CCN)NC(=O)[C@H](CC(C)C)NC(=O)[C@@H](CC(C)C)NC(=O)[C@H](CCN)NC2=O)[C@@H](C)O)NC1=O)[C@@H](C)O)C(C)C [Ex. 184] (I: H-[NMeV]TYCE[dDab]SWCVAS-NH2 / II: [Dab]T[Dab][Dab][Dab][dL]L[Dab][Dab]T; disulfide I:4-I:9; amide I:5-II:N; lactam II:4-II:C)	1 µg/mL (≈ 0.422 µM)	0.125 µg/mL (≈ 0.0527 µM)	1 µg/mL (≈ 0.422 µM)	2 µg/mL (≈ 0.844 µM)	0.125 µg/mL (≈ 0.0527 µM)	8 µg/mL (≈ 3.38 µM)	0.25 µg/mL (≈ 0.105 µM)	0.25 µg/mL (≈ 0.105 µM)	<1%
CN[C@H](C(=O)N[C@H](C(=O)N[C@@H](Cc1ccc(O)cc1)C(=O)N[C@H]1CSSC[C@@H](C(=O)N[C@H](C(=O)N[C@@H](C)C(=O)N[C@@H](CO)C(N)=O)C(C)(C)C)NC(=O)[C@H](Cc2c[nH]c3ccccc23)NC(=O)[C@H](CCO)NC(=O)[C@@H](CCN)NC(=O)[C@H](CCC(=O)N[C@@H](CCN)C(=O)N[C@H](C(=O)N[C@@H](CCN)C(=O)N[C@H]2CCNC(=O)[C@H]([C@@H](C)O)NC(=O)[C@H](CCN)NC(=O)[C@H](CCN)NC(=O)[C@H](CC(C)C)NC(=O)[C@@H](CC(C)C)NC(=O)[C@H](CCN)NC2=O)[C@@H](C)O)NC1=O)[C@@H](C)O)C(C)C [Ex. 185] (I: H-[NMeV]TYCE[dDab][hSer]WC[Tle]AS-NH2 / II: [Dab]T[Dab][Dab][Dab][dL]L[Dab][Dab]T; disulfide I:4-I:9; amide I:5-II:N; lactam II:4-II:C)	0.25 µg/mL (≈ 0.104 µM)	0.125 µg/mL (≈ 0.0521 µM)	0.25 µg/mL (≈ 0.104 µM)	0.25 µg/mL (≈ 0.104 µM)	0.125 µg/mL (≈ 0.0521 µM)	1 µg/mL (≈ 0.417 µM)	0.125 µg/mL (≈ 0.0521 µM)	0.125 µg/mL (≈ 0.0521 µM)	<1%
CC(C)C[C@@H]1NC(=O)[C@@H](CC(C)C)NC(=O)[C@H](CCN)NC(=O)[C@@H](NC(=O)[C@H](CCN)NC(=O)[C@@H](NC(=O)[C@H](CCN)NC(=O)CC[C@@H]2NC(=O)[C@@H](NC(=O)[C@H](Cc3ccc(O)cc3)NC(=O)[C@@H](NC(=O)[C@@H](N)C(C)C)[C@@H](C)O)CSSC[C@@H](C(=O)N[C@H](C(=O)N[C@@H](C)C(=O)N[C@@H](CO)C(=O)O)C(C)(C)C)NC(=O)[C@H](Cc3c[nH]c4ccccc34)NC(=O)[C@H]([C@@H](C)O)NC(=O)[C@@H](CCN)NC2=O)[C@@H](C)O)CCNC(=O)[C@H]([C@@H](C)O)NC(=O)[C@H](CCN)NC(=O)[C@H](CCN)NC1=O [Ex. 186] (I: H-VTYCE[dDab]TWC[Tle]AS-OH / II: [Dab]T[Dab][Dab][Dab][dL]L[Dab][Dab]T; disulfide I:4-I:9; amide I:5-II:N; lactam II:4-II:C)	0.25 µg/mL (≈ 0.105 µM)	0.0625 µg/mL (≈ 0.0262 µM)	0.25 µg/mL (≈ 0.105 µM)	1 µg/mL (≈ 0.419 µM)	0.125 µg/mL (≈ 0.0524 µM)	8 µg/mL (≈ 3.35 µM)	0.125 µg/mL (≈ 0.0524 µM)	0.125 µg/mL (≈ 0.0524 µM)	<1%
CC(C)C[C@@H]1NC(=O)[C@@H](CC(C)C)NC(=O)[C@H](CCN)NC(=O)[C@@H](NC(=O)[C@H](CCN)NC(=O)[C@@H](NC(=O)[C@H](CCN)NC(=O)CC[C@@H]2NC(=O)[C@@H](NC(=O)[C@H](Cc3ccc(O)cc3)NC(=O)[C@H](CCC(=O)O)NC(=O)[C@@H](O)C(C)C)CSSC[C@@H](C(=O)N[C@H](C(=O)N[C@@H](CCCCN)C(=O)N[C@H](CO)[C@@H](C)O)C(C)(C)C)NC(=O)[C@H](Cc3c[nH]c4ccccc34)NC(=O)[C@H]([C@@H](C)O)NC(=O)[C@@H](CCN)NC2=O)[C@@H](C)O)CCNC(=O)[C@H]([C@@H](C)O)NC(=O)[C@H](CCN)NC(=O)[C@H](CCN)NC1=O [Ex. 189] (I: H-[Hiv]EYCE[dDab]TWC[Tle]K[Thr(ol)] / II: [Dab]T[Dab][Dab][Dab][dL]L[Dab][Dab]T; disulfide I:4-I:9; amide I:5-II:N; lactam II:4-II:C)	0.5 µg/mL (≈ 0.202 µM)	0.125 µg/mL (≈ 0.0506 µM)	0.25 µg/mL (≈ 0.101 µM)	1 µg/mL (≈ 0.405 µM)	0.125 µg/mL (≈ 0.0506 µM)	4 µg/mL (≈ 1.62 µM)	0.125 µg/mL (≈ 0.0506 µM)	0.25 µg/mL (≈ 0.101 µM)	<1%
CC(C)C[C@@H]1NC(=O)[C@@H](CC(C)C)NC(=O)[C@H](CCN)NC(=O)[C@@H](NC(=O)[C@H](CCN)NC(=O)[C@@H](NC(=O)[C@H](CCN)NC(=O)CC[C@@H]2NC(=O)[C@@H](NC(=O)[C@H](Cc3ccc(O)cc3)NC(=O)[C@H](CCC(=O)O)NC(=O)[C@@H](O)C(C)C)CSSC[C@@H](C(=O)N[C@H](C(=O)N[C@@H](CCN)C(=O)N[C@H](CO)[C@@H](C)O)C(C)(C)C)NC(=O)[C@H](Cc3c[nH]c4ccccc34)NC(=O)[C@H]([C@@H](C)O)NC(=O)[C@@H](CCN)NC2=O)[C@@H](C)O)CCNC(=O)[C@H]([C@@H](C)O)NC(=O)[C@H](CCN)NC(=O)[C@H](CCN)NC1=O [Ex. 190] (I: H-[Hiv]EYCE[dDab]TWC[Tle][Dab][Thr(ol)] / II: [Dab]T[Dab][Dab][Dab][dL]L[Dab][Dab]T; disulfide I:4-I:9; amide I:5-II:N; lactam II:4-II:C)	0.5 µg/mL (≈ 0.205 µM)	0.0625 µg/mL (≈ 0.0256 µM)	0.5 µg/mL (≈ 0.205 µM)	1 µg/mL (≈ 0.409 µM)	0.0625 µg/mL (≈ 0.0256 µM)	4 µg/mL (≈ 1.64 µM)	0.125 µg/mL (≈ 0.0512 µM)	0.25 µg/mL (≈ 0.102 µM)	<1%

— US11629171B2, “Beta-hairpin peptidomimetics” (POLYPHOR AG, priority 2017, dated 2023)
